Results on 17 compounds are retold here after US20250320213A1, “Nitrogen-Containing Heterocyclic Compounds” (Pfizer Inc., priority 2024, published 2025).

Assay [1] has as its system CCL17 secretion in peripheral human whole blood. Put plainly: Human Whole Blood (HWB) CCL17 TR-FRET Assay (IL-13 stimulated CCL17 secretion). The format is cell-based. Conditions: human whole blood, IL-13 stimulated. Summed up:
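IC50 values reflect inhibition of IL-13-driven CCL17 release in human whole blood. Blood was preincubated with compound 2 h, stimulated 48 h at 37 °C with IL-13 (10 ng/mL final), and serum CCL17 was measured by TR-FRET.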
On the technique in general: Time-resolved FRET reads energy transfer from a long-lived donor to a nearby acceptor.

Assay [2] has as its target T1, STAT6 (Homo sapiens, UniProt P42226).
T1 construct: stably transfected HaCaT keratinocyte cell line, which expresses NanoLuc luciferase reporter gene under the transcriptional control of the STAT6 responsive promoter; endogenous in cells; host or cells: HaCaT keratinocyte reporter cell line (stably transfected with a NanoLuc reporter)
T1 sequence (P42226 1-847): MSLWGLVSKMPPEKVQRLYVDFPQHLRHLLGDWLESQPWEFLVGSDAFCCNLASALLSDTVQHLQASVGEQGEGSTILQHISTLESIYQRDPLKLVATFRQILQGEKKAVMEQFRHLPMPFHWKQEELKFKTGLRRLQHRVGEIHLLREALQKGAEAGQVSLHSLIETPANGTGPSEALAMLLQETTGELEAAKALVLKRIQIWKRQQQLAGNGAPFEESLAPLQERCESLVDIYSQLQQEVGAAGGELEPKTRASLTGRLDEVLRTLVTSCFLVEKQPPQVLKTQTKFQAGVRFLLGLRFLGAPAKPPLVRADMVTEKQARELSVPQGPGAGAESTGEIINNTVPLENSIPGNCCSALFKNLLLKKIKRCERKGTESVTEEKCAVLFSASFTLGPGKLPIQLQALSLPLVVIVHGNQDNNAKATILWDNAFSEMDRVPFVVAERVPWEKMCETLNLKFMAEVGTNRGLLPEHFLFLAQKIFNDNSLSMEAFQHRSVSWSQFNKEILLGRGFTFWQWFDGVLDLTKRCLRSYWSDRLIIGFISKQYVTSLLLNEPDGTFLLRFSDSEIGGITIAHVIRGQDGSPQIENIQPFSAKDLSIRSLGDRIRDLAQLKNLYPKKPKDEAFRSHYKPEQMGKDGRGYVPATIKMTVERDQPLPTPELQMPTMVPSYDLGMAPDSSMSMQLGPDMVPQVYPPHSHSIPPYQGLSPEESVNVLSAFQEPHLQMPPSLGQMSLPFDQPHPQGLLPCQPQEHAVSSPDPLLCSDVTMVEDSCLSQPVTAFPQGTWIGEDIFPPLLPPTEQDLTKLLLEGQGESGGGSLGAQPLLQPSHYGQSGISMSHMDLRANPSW
The assay is described as follows: STAT6 Reporter Luciferase Assay (IL-13 stimulated HaCaT keratinocyte NanoLuc reporter cells). The format is cell-based. The note with it: IL-13 stimulated HaCaT STAT6 NanoLuc reporter cells; read-out: Reporter EC50. The essentials:
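IL-13 (0.12 nM, 4 h) stimulated STAT6 reporter activity in HaCaT cells after a 2 h compound pre-incubation; NanoLuc signal was measured.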

`CC(C)C1CN(c2ccc(C(=O)N(C)C)cn2)Cc2c(C(=O)NCc3ccc(NC(=O)N(C)C)cc3)nn(C)c21` (racemic) [Example 265, rac-(R)-5-(5-(dimethylcarbamoyl)pyridin-2-yl)-N-(4-(3,3-dimethylureido)benzyl)-7-isopropyl-1-methyl-4,5,6,7-tetrahydro-1H-pyrazolo[4,3-c]pyridine-3-carboxamide] gave an IC50 in assay [1] (Homo sapiens, 48 h) of 37 nM. The EC50 in assay [2] amounted to 5 nM.

As for `CCn1nc(C(=O)NCc2ccc(NC(=O)N(C)C)cc2)c2c1C(C(F)(F)F)CN(c1ccc(C(=O)N(C)C)cn1)C2` (racemic) [Example 282, rac-(R)-5-(5-(dimethylcarbamoyl)pyridin-2-yl)-N-(4-(3,3-dimethylureido)benzyl)-1-ethyl-7-(trifluoromethyl)-4,5,6,7-tetrahydro-1H-pyrazolo[4,3-c]pyridine-3-carboxamide], the IC50 in assay [1] (Homo sapiens, 48 h) was 9 nM. Also, the EC50 in assay [2] is 1 nM.

As to `CCn1nc2c(c1C(=O)NCc1ccc(NC(=O)N(C)C)cc1)CN(c1ccc(C(=O)N(C)C)cn1)[C@H](C)[C@@H]2C` (racemic) [Example 314, rac-(6R,7S)-5-(5-(dimethylcarbamoyl)pyridin-2-yl)-N-(4-(3,3-dimethylureido)benzyl)-2-ethyl-6,7-dimethyl-4,5,6,7-tetrahydro-2H-pyrazolo[4,3-c]pyridine-3-carboxamide], it took 6850 nM to reach half-maximal inhibition in assay [1] (Homo sapiens, 48 h) (IC50). The EC50 in assay [2] amounted to 1070 nM.

Take `CC1CN(c2ccc(C(=O)N(C)C)cn2)Cc2c(C(=O)NCc3ccc(NC(=O)N(C)C)cc3)nn(C3COC3)c21` (racemic) [Example 321, rac-(R)-5-(5-(dimethylcarbamoyl)pyridin-2-yl)-N-(4-(3,3-dimethylureido)benzyl)-7-methyl-1-(oxetan-3-yl)-4,5,6,7-tetrahydro-1H-pyrazolo[4,3-c]pyridine-3-carboxamide]: the IC50 in assay [1] (Homo sapiens, 48 h) came out at 22 nM. The EC50 in assay [2] was found to be 3 nM.

In turn, `CC(C)n1nc(C(=O)NCc2ccc(NC(=O)N(C)C)cc2)c2c1CCN(c1ccc(C3CCCO3)cn1)C2` (racemic) [Example 322, rac-(R)—N-(4-(3,3-Dimethylureido)benzyl)-1-isopropyl-5-(5-(tetrahydrofuran-2-yl)pyridin-2-yl)-4,5,6,7-tetrahydro-1H-pyrazolo[4,3-c]pyridine-3-carboxamide] came in with an IC50 in assay [1] (Homo sapiens, 48 h) of 1350 nM. Besides, the concentration giving a half-maximal response (EC50) in assay [2] is 77 nM.

Regarding `CC(C)n1nc(C(=O)NCc2ccc(NC(=O)N(C)C)cc2)c2c1CCN(c1ccc(C3CCCCO3)cn1)C2` (racemic) [Example 339, rac-(R)-N-(4-(3,3-dimethylureido)benzyl)-1-isopropyl-5-(5-(tetrahydro-2H-pyran-2-yl)pyridin-2-yl)-4,5,6,7-tetrahydro-1H-pyrazolo[4,3-c]pyridine-3-carboxamide], the IC50 in assay [1] (Homo sapiens, 48 h) was above 23100 nM. In addition, in assay [2], the concentration for a half-maximal effect (EC50) turned out to be 6550 nM.

`CC(C)n1nc(C(=O)NCc2ccc(NC(=O)N(C)C)cc2)c2c1CCN(c1ccc(C3CCOC3)cn1)C2` (racemic) [Example 345, rac-(R)-N-(4-(3,3-dimethylureido)benzyl)-1-isopropyl-5-(5-(tetrahydrofuran-3-yl)pyridin-2-yl)-4,5,6,7-tetrahydro-1H-pyrazolo[4,3-c]pyridine-3-carboxamide] showed an IC50 in assay [1] (Homo sapiens, 48 h) above 30000 nM. The EC50 in assay [2] was above 2630 nM.

With `CC(CO)n1nc(C(=O)NCc2ccc(NC(=O)N(C)C)cc2)c2c1CCN(c1ccc(C(=O)N(C)C)cn1)C2` (racemic) [Example 351, rac-(R)-5-(5-(dimethylcarbamoyl)pyridin-2-yl)-N-(4-(3,3-dimethylureido)benzyl)-1-(1-hydroxypropan-2-yl)-4,5,6,7-tetrahydro-1H-pyrazolo[4,3-c]pyridine-3-carboxamide], in assay [1] (Homo sapiens, 48 h), the IC50 turned out to be 129 nM. Moreover, in assay [2], the EC50 amounted to 73 nM.

In turn, `CC(CC#N)n1nc(C(=O)NCc2ccc(NC(=O)N(C)C)cc2)c2c1CCN(c1ccc(C(=O)N(C)C)cn1)C2` (racemic) [Example 358, rac-(R)-1-(1-cyanopropan-2-yl)-5-(5-(dimethylcarbamoyl)pyridin-2-yl)-N-(4-(3,3-dimethylureido)benzyl)-4,5,6,7-tetrahydro-1H-pyrazolo[4,3-c]pyridine-3-carboxamide] came in with an IC50 in assay [1] (Homo sapiens, 48 h) of 112 nM. Further, the EC50 in assay [2] worked out at 51 nM.

Compound `CCc1nc(C(=O)NCc2ccc(NC(=O)N(C)C)cc2)c2n1C(C)CN(c1ccc(C(=O)N(C)C)cc1)C2` (racemic) [Example 399, rac-(R)-7-(4-(dimethylcarbamoyl)phenyl)-N-(4-(3,3-dimethylureido)benzyl)-3-ethyl-5-methyl-5,6,7,8-tetrahydroimidazo[1,5-a]lpyrazine-1-carboxamide] displayed an IC50 in assay [1] (Homo sapiens, 48 h) of 9 nM. In addition, the EC50 in assay [2] came out at 2 nM.

`CC(C)n1nc(C(=O)NCc2ccc(NC(=O)N(C)C)cc2)c2c1C(C(F)(F)F)CN(c1ncc(C(=O)N(C)C)cn1)C2` (racemic) [Example 459, rac-(R)-5-(5-(dimethylcarbamoyl)pyrimidin-2-yl)-N-(4-(3,3-dimethylureido)benzyl)-1-isopropyl-7-(trifluoromethyl)-4,5,6,7-tetrahydro-1H-pyrazolo[4,3-c]pyridine-3-carboxamide] had an IC50 in assay [1] (Homo sapiens, 48 h) of 2 nM. For the same compound, the EC50 in assay [2] was found to be 0.3 nM.

The compound `CCn1nc(C(=O)NCc2ccc(NC(=O)N(C)C)cc2)c2c1C(C(F)(F)F)CN(c1ncc(C(=O)N(C)C)cn1)C2` (racemic) [Example 460, rac-(R)-5-(5-(dimethylcarbamoyl)pyrimidin-2-yl)-N-(4-(3,3-dimethylureido)benzyl)-1-ethyl-7-(trifluoromethyl)-4,5,6,7-tetrahydro-1H-pyrazolo[4,3-c]pyridine-3-carboxamide] gave an IC50 in assay [1] (Homo sapiens, 48 h) of 7 nM. The EC50 in assay [2] came to 0.3 nM.

On to `CCn1nc(C(=O)NCc2ccc(C(=O)NC)cc2)c2c1C(C(F)(F)F)CN(c1ccc(C(=O)N(C)C)cn1)C2` (racemic) [Example 463, rac-(R)-5-(5-(dimethylcarbamoyl)pyridin-2-yl)-1-ethyl-N-(4-(methylcarbamoyl)benzyl)-7-(trifluoromethyl)-4,5,6,7-tetrahydro-1H-pyrazolo[4,3-c]pyridine-3-carboxamide], for which the IC50 in assay [1] (Homo sapiens, 48 h) is 23 nM. In assay [2], the EC50 was 2.7 nM.

In assay [1] (48 hours), `CC(C)n1nc(C(=O)NCc2ccc(NC(=O)N(C)C)cc2)c2c1CCN(c1ccc(C3CCNC3=O)cn1)C2` (racemic) [Example 469, rac-(R)—N-(4-(3,3-Dimethylureido)benzyl)-1-isopropyl-5-(5-(2-oxopyrrolidin-3-yl)pyridin-2-yl)-4,5,6,7-tetrahydro-1H-pyrazolo[4,3-c]pyridine-3-carboxamide] registered an IC50 above 4160 nM. Moreover, the half-maximal effective concentration (EC50) in assay [2] is 5110 nM.

The compound `CC(C)n1nc(C(=O)NCc2ccc(NC(=O)N(C)C)cc2)c2c1C(O)CN(c1ccc(C(=O)N(C)C)cn1)C2` (racemic) [Example 472, rac-(R)-5-(5-(dimethylcarbamoyl)pyridin-2-yl)-N-(4-(3,3-dimethylureido)benzyl)-7-hydroxy-1-isopropyl-4,5,6,7-tetrahydro-1H-pyrazolo[4,3-c]pyridine-3-carboxamide] gave an IC50 in assay [1] (Homo sapiens, 48 h) of 120 nM. In addition, in assay [2], the EC50 was 41 nM.

`CC(C)n1nc(C(=O)NCc2ccc(NC(=O)N(C)C)cc2)c2c1CCN(c1ccc(C3CCN(C)C3=O)cn1)C2` (racemic) [Example 505, rac-(R)-N-(4-(3,3-dimethylureido)benzyl)-1-isopropyl-5-(5-(1-methyl-2-oxopyrrolidin-3-yl)pyridin-2-yl)-4,5,6,7-tetrahydro-1H-pyrazolo[4,3-c]pyridine-3-carboxamide] came in with an IC50 in assay [1] (Homo sapiens, 48 h) above 30000 nM. Moreover, the EC50 in assay [2] worked out at 7900 nM.

The compound `CC1c2c(C(=O)NCc3ccc(NC(=O)N(C)C)cc3)nn(C(C)C)c2[C@@H](C)CN1c1ccc(C(=O)N(C)C)cn1` (mixture of isomers) [Example 524, (4RS,7S)-5-(5-(Dimethylcarbamoyl)pyridin-2-yl)-N-(4-(3,3-dimethylureido)benzyl)-1-isopropyl-4,7-dimethyl-4,5,6,7-tetrahydro-1H-pyrazolo[4,3-c]pyridine-3-carboxamide] came in with an IC50 in assay [1] (Homo sapiens, 48 h) of 6 nM. Moreover, the EC50 in assay [2] worked out at 0.1 nM.

In general, IC50 refers to the point on the concentration scale where inhibition reaches its midpoint. A high value points to lower potency. The EC50 is the concentration that produces a half-maximal response.
